The values that follow are results of earlier work, collected in US8173686B2, “Use of picoplatin to treat colorectal cancer” (priority 2006, dated 2012).

For this series the following is noted: in vivo.

`N.N.O=C([O-])C1(C(=O)[O-])CCC1.[Pt+2]` [carboplatin]: the “main / dose-limiting toxicity” value is on record as “myelosuppression”.
